According to ChEMBL document CHEMBL1201862, “PubChem BioAssay data set” (2004):
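Values below derive from 48-hour exposures of cells grown in 96-well plates, with endpoints linearly interpolated between the two concentrations bracketing the appropriate inhibition level. GI50 = concentration required for 50% inhibition of growth.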 The source made the active and inactive calls. Rule as the data show it: active = GI50 up to about 1.1 µM and inactive = higher.

How the values were obtained:
Assay in all cases: NCI anticancer screen, dose series, 48 h
TK-10 = test system: TK-10
MDA-MB-435 = test system: MDA-MB-435
HOP-62 = test system: HOP-62
CCRF-CEM = test system: CCRF-CEM
OVCAR-4 = test system: OVCAR-4
HOP-92 = test system: HOP-92
NCI-H522 = test system: NCI-H522
SK-MEL-2 = test system: SK-MEL-2
SF-295 = test system: SF-295
OVCAR-3 = test system: OVCAR-3
DU-145 = test system: DU-145
T47D = test system: T47D
OVCAR-8 = test system: OVCAR-8
UACC-257 = test system: UACC-257
MCF7 = test system: MCF7
COLO 205 = test system: COLO 205
MDA-N = test system: MDA-N
HCT-116 = test system: HCT-116
K562 = test system: K562
M14 = test system: M14

| Structure (SMILES) | GI50 (TK-10) | GI50 (MDA-MB-435) | GI50 (HOP-62) | GI50 (CCRF-CEM) | GI50 (OVCAR-4) | GI50 (HOP-92) | GI50 (NCI-H522) | GI50 (SK-MEL-2) | GI50 (SF-295) | GI50 (OVCAR-3) | GI50 (DU-145) | GI50 (T47D) | GI50 (OVCAR-8) | GI50 (UACC-257) | GI50 (MCF7) | GI50 (COLO 205) | GI50 (MDA-N) | GI50 (HCT-116) | GI50 (K562) | GI50 (M14) |
| --- | --- | --- | --- | --- | --- | --- | --- | --- | --- | --- | --- | --- | --- | --- | --- | --- | --- | --- | --- | --- |
| CC1OC(OC2C(O)C(O)C(O)C(O)C2O)C(N)CC1NC(=N)C(=O)O (stereo not given) | > 100 µM (inactive) | > 100 µM (inactive) | > 100 µM (inactive) | > 100 µM (inactive) | > 100 µM (inactive) | > 100 µM (inactive) | > 100 µM (inactive) | > 100 µM (inactive) | > 100 µM (inactive) | > 100 µM (inactive) | > 100 µM (inactive) | > 100 µM (inactive) | > 100 µM (inactive) | > 100 µM (inactive) | > 100 µM (inactive) | > 100 µM (inactive) | > 100 µM (inactive) | > 100 µM (inactive) | > 100 µM (inactive) | > 100 µM (inactive) |
| COC(=O)[C@]1(CCC(C)=O)C(=O)C=CN([C@H](C)c2ccccc2)[C@@H]1Cc1ccc(OC)c(OCc2ccccc2)c1I | 21.5 µM (inactive) | 18.1 µM (inactive) | 22.8 µM (inactive) | 25.4 µM (inactive) | 19.3 µM (inactive) | 6.08 µM (inactive) | 20 µM (inactive) | 16.6 µM (inactive) | 17.7 µM (inactive) | 16.8 µM (inactive) | 16.7 µM (inactive) | 13.5 µM (inactive) | 22 µM (inactive) | 16.7 µM (inactive) | 19.2 µM (inactive) | 17.9 µM (inactive) | 18.7 µM (inactive) | 14 µM (inactive) | 17.8 µM (inactive) | 15 µM (inactive) |
| O=C1CSC(c2ccccc2)N1c1ccc(-n2c(-c3ccccc3)nc3ccccc3c2=O)cc1 (stereo not given) | > 100 µM (inactive) | 63.4 µM (inactive) | > 100 µM (inactive) | 36.3 µM (inactive) | 42 µM (inactive) | > 61.1 µM (inactive) | 49.7 µM (inactive) | > 100 µM (inactive) | 63.2 µM (inactive) | 64.1 µM (inactive) | > 100 µM (inactive) | 34.8 µM (inactive) | 61.7 µM (inactive) | > 100 µM (inactive) | > 92 µM (inactive) | 54.2 µM (inactive) | > 79.1 µM (inactive) | 39.2 µM (inactive) | 33.1 µM (inactive) | > 100 µM (inactive) |
| Cc1cn(C2CC(N=[N+]=[N-])C(CO)O2)c(=O)n(CCCCBr)c1=O (stereo not given) | > 100 µM (inactive) | 80.4 µM (inactive) | > 100 µM (inactive) | < 0.01 µM (active) | > 100 µM (inactive) | > 100 µM (inactive) | > 100 µM (inactive) | 61 µM (inactive) | > 100 µM (inactive) | 40.9 µM (inactive) | > 100 µM (inactive) | > 100 µM (inactive) | > 100 µM (inactive) | > 100 µM (inactive) | 60.5 µM (inactive) | > 100 µM (inactive) | > 100 µM (inactive) | > 100 µM (inactive) | > 100 µM (inactive) | > 100 µM (inactive) |
| C[n+]1[n-]o/c(=N\N=O)c1-c1cc(-c2/c(=N/N=O)o[n-][n+]2C)cc(-c2/c(=N\N=O)o[n-][n+]2C)c1 | > 100 µM (inactive) | > 100 µM (inactive) | > 100 µM (inactive) | > 100 µM (inactive) | > 100 µM (inactive) | > 100 µM (inactive) | > 100 µM (inactive) | > 100 µM (inactive) | > 100 µM (inactive) | > 100 µM (inactive) | > 100 µM (inactive) | > 100 µM (inactive) | > 100 µM (inactive) | > 100 µM (inactive) | > 100 µM (inactive) | > 100 µM (inactive) | > 100 µM (inactive) | > 100 µM (inactive) | > 100 µM (inactive) | > 100 µM (inactive) |
| CCCCCCCCCCCCCCCC(=O)OCC1OC(n2ccc(N)nc2=O)C(O)C1O (stereo not given) | > 96.4 µM (inactive) | 6.75 µM (inactive) | 0.403 µM (active) | 0.0106 µM (active) | > 100 µM (inactive) | > 28.8 µM (inactive) | 3.08 µM (inactive) | > 100 µM (inactive) | 44.8 µM (inactive) | > 28.2 µM (inactive) | 2.12 µM (inactive) | > 100 µM (inactive) | 2.39 µM (inactive) | 33.4 µM (inactive) | 1.06 µM (active) | 15 µM (inactive) | > 100 µM (inactive) | 2.22 µM (inactive) | 8.24 µM (inactive) | 0.931 µM (active) |
| COc1cccc2c1-c1nc(N)c3c(OC)cccc3c1C2=O | > 100 µM (inactive) | > 100 µM (inactive) | 22.8 µM (inactive) | > 100 µM (inactive) | 62.8 µM (inactive) | > 100 µM (inactive) | > 100 µM (inactive) | > 100 µM (inactive) | > 100 µM (inactive) | > 100 µM (inactive) | > 100 µM (inactive) | > 100 µM (inactive) | 85.5 µM (inactive) | > 100 µM (inactive) | > 100 µM (inactive) | > 100 µM (inactive) | > 100 µM (inactive) | > 100 µM (inactive) | 64.7 µM (inactive) | > 100 µM (inactive) |
| CC(=O)Oc1c(OC(C)C)c(C)c(O[Si](C(C)C)(C(C)C)C(C)C)c2[nH]c3ccccc3c12 | > 100 µM (inactive) | > 42.2 µM (inactive) | > 100 µM (inactive) | 60.1 µM (inactive) | 57.8 µM (inactive) | > 100 µM (inactive) | 34.6 µM (inactive) | > 100 µM (inactive) | 76.2 µM (inactive) | > 100 µM (inactive) | > 100 µM (inactive) | 44.4 µM (inactive) | > 100 µM (inactive) | > 62.4 µM (inactive) | 56.6 µM (inactive) | > 100 µM (inactive) | > 100 µM (inactive) | 63.4 µM (inactive) | > 100 µM (inactive) | > 94.6 µM (inactive) |
| CCC1(C)NC(c2cnccn2)=NN1c1ccc(Cl)cc1 (stereo not given) | 70.3 µM (inactive) | > 100 µM (inactive) | > 100 µM (inactive) | 18.7 µM (inactive) | 63.2 µM (inactive) | > 100 µM (inactive) | > 100 µM (inactive) | > 100 µM (inactive) | > 100 µM (inactive) | 39.8 µM (inactive) | 65.2 µM (inactive) | 15.5 µM (inactive) | > 100 µM (inactive) | 21.9 µM (inactive) | 45.4 µM (inactive) | > 100 µM (inactive) | > 100 µM (inactive) | 66.8 µM (inactive) | 39.3 µM (inactive) | > 100 µM (inactive) |
| O=c1[nH]nc(Cc2ccccc2)n1/N=C\CC/C=N\n1c(Cc2ccccc2)n[nH]c1=O | > 100 µM (inactive) | 34.6 µM (inactive) | 22.1 µM (inactive) | 12.5 µM (inactive) | 48.8 µM (inactive) | 41.8 µM (inactive) | 61.1 µM (inactive) | 31.3 µM (inactive) | 39.1 µM (inactive) | 61.7 µM (inactive) | 43.5 µM (inactive) | 30.9 µM (inactive) | 23.1 µM (inactive) | > 100 µM (inactive) | 30 µM (inactive) | > 100 µM (inactive) | 44.7 µM (inactive) | 18.5 µM (inactive) | 36.2 µM (inactive) | 44.9 µM (inactive) |
